The test system of one test is Staphylococcus aureus 6. The test can be described thus: antimicrobial activity, minimal inhibitory concentration (agar streak). In kind it is cell-based. As to conditions: heart infusion agar, 37° C., 20 hours, overnight culture 10^8 viable cells per ml. On the procedure: (§1) One loopful of an overnight culture of each test strain in Trypticase-soy broth (10^8 viable cells per ml.) was streaked on heart infusion agar (HI-agar) containing graded concentrations of antibiotics, and the minimal inhibitory concentration (MIC) was expressed in terms of μg/ml after incubation at 37° C. for 20 hours.

For test [1], the system named is Pseudomonas aeruginosa NCTC-10490. The test is described as above. It is filed as cell-based. The conditions noted are these: NCTC10490, heart infusion agar, 37° C., 20 hours, overnight culture 10^8 viable cells per ml. On the procedure:
as §1

In the case of `CC(C)(O)[C@@H]1C(=O)N2C(C(=O)[O-])=C(SCCN)C[C@H]12.[K+]` [potassium (5R,6R)-3-(2-aminoethylthio)-6-(1-hydroxy-1-methylethyl)-7-oxo-1-azabicyclo[3.2.0]hept-2-ene-2-carboxylate], the MIC in the test on Staphylococcus aureus 6 amounted to 1.56 µg/mL; in test [1] it was 12.5 µg/mL.

In general, MIC refers to the lowest concentration found to suppress growth. Read a low MIC as a more susceptible organism.

The values are drawn from patent US4539152A, “4-Substituted-2-oxoazetidine compounds” (Fujisawa Pharmaceutical Co., Ltd., priority 1980, dated 1985).
